# Earlier results in article PMC3877923 (Journal of the American Chemical Society, 2013).
# Marks after values point to notes of the source that are not given here.
structure (smiles),measurement,value
Cc1cc(C#N)cc(C)c1Oc1nc(Nc2ccc(C#N)cc2)nc(N)c1Br [etravirine],Aqueous solubility S,<< 1 ^b µg/mL
